{"source": "patent US8338475B2", "about": "“Anti-proliferative pharmaceutical composition” (BioCis Pharma Oy, priority 2003, dated 2012)", "key": {"A2058 cells": {"system": "A2058 cells", "test": "Monitoring of intracellular pH (BCECF, flow cytometry), A2058 cells", "type": "cell-based, human", "protocol": "(§1) The cells were labelled with BCECF and placed in pH-adjusted buffer solutions with or without various concentrations of cis-UCA. Left panels, calibration of BCECF fluorescence intensity of nigericin-treated cells in high-potassium buffer as a function of buffer pH. Right panels, intracellular pH values in buffers with or without various concentrations of cis-UCA. All test buffers were adjusted to pH 7.4 (%) or pH 6.5 (+) after the addition of cis-UCA. Results were calculated using the corresponding calibration curve on the left.\n(§2) Intracellular pH in the cell lines in the presence of cis-UCA was measured with the pH-sensitive fluorescent dye 2′,7′-bis-(2-carboxyethyl)-5-(and-6)-carboxyfluorescein (BCECF, acetoxymethyl ester; Molecular Probes, Leiden, The Netherlands) by flow cytometry. Two million cells were incubated in 5 ml DMEM medium (Invitrogen), pH 7.4, containing 0.35 μM BCECF at 37° C. for 30 min, washed once in sodium phosphate buffer (50 mM NaH2PO4/Na2HPO4, 43 mM NaCl), pH 7.4, and resuspended in 0.3 ml saline. Twenty μl of the cell suspension was pipetted into flow cytometry tubes. […]\n(§3) Calibration of intracellular pH in situ was performed using the K^+/H^+ ionophore nigericin (Molecular Probes) in high-potassium buffers. […] Exact intracellular pH values were calculated from mean BCECF fluorescence intensities by reference with nigericin-clamped calibration cells. […]"}, "[1]": {"system": "A2058 human cutaneous melanoma tumours", "test": "Tumour growth in SCID/SCID mice in vivo", "details": "16-day treatment, intratumoural 30 mM cis-UCA, 1 μM CPT, pH 6.5", "protocol": "All injection solutions were adjusted to pH 6.5. The data points have been normalised to unity tumour size at day 0. Data from five mice in each group is included (mean, SD).\nThe A2058 human cutaneous melanoma cells were cultured under normal cell culture conditions prior to injection into mice. Two million A2058 cells were injected s.c. into the neck of SCID/SCID mice (Charles River Laboratories, Germany). Tumours were allowed to develop for two weeks to the size of a small pearl before the treatments. The mice were divided into four groups of six animals, each containing three males and three females. Each tumour was first injected 50 μl of one of the test solutions (A: PBS; B: 30 mM cis-UCA; C: 1 μM CPT; D: 30 mM cis-UCA+1 μM CPT) three times a week (Mon-Wed-Fri). After day 7 from the beginning of injections, the injection volume was increased to 150 μl injected into three different sides of the tumour. Tumour length and width were measured with a caliper three times a week before each injection. Tumour planar area was calculated as length×width. The tumour growth inhibition efficiency I of the treatments was calculated according to Equation 1:\n[formula] where Sr represents the normalised relative size of the tumour in the control group (A) or any of the treatment groups (T), and d0 to d16 are the (eight) measuring time points during the 16-day treatment period.\n(§4) After 16 days from the first injection, all the animals were sacrificed with CO2, and the tumours were collected and fixed in formalin for further studies. In groups A, C, and D, one mouse was sacrificed before the end of the experiment because of poor development of the tumour (no measurable tumour at day 0). One animal in group B was sacrificed prematurely after it had severly scratched the tumour. Data from these animals were not included in the calculation of the tumour size results. All the removed animals were female mice. Immunohistochemical data was obtained also from the removed mice except from group B. The experiments were conducted under a protocol approved by the local ethics committee."}, "A2058 tumours": {"system": "A2058 tumours", "test": "Haematoxylin/eosin staining of tumour sections (necrosis)", "type": "in vivo, SCID/SCID mice", "details": "tumours collected after 16 days; 30 mM cis-UCA, 1 μM CPT intratumoural", "source_text": "as §4\nParaffin sections of the tumours were stained with haematoxylin/eosin following standard procedures for an overall picture. Ki67 was stained to detect the amount of proliferating cells. The staining procedure for the Ki67 primary antibody (Dako, Klostrup, Denmark) at 1:50 dilution and secondary antibody (StreptABComplex/HRP Duet Mouse/Rabbit, Dako) at 1:100 dilution followed the instructions provided by the manufacturer. Two sections from each tumour was examined."}, "HeLa cells": {"system": "HeLa cells", "test": "Monitoring of intracellular pH (BCECF, flow cytometry), HeLa cells", "type": "cell-based, human", "protocol": "as §1, §2, §3"}, "[2]": {"details": "extracellular pH 6.5, highest cis-UCA concentration (30 mM)"}, "[3]": {"details": "extracellular pH 7.4, cis-UCA up to 30 mM"}}, "data": [{"smiles": "O=C(O)/C=C\\c1c[nH]cn1", "note": "[cis-UCA, cis-urocanic acid]", "values": [{"measurement": "decrease of intracellular pH", "setting": "A2058 cells; [2]", "value": "about 0.25 pH units"}, {"measurement": "intracellular pH with escalating concentrations", "setting": "A2058 cells; [3]", "value": "remained almost constant"}, {"measurement": "Growth suppression, female", "setting": "[1]; female mice", "value": 72.0, "unit": "%"}, {"measurement": "Growth suppression, male", "setting": "[1]; male mice", "value": 55.9, "unit": "%"}, {"measurement": "Necrosis (histological sections with haematoxylin/eosin staining)", "setting": "A2058 tumours", "value": "Dead cells and large necrotic areas were detected and yes"}, {"measurement": "decrease of intracellular pH", "setting": "HeLa cells; [2]", "value": "about 0.25 pH units"}, {"measurement": "intracellular pH with escalating concentrations", "setting": "HeLa cells; [3]", "value": "remained almost constant"}]}]}
